Measurements published in the NIST ThermoML archive (doi:10.1021/je0601255).

Test: xn = mol fraction of the nth substance listed
Details: 101 kPa, Liquid; for viscosity: Capillary tube (Ostwald / Ubbelohde) method; for mass density: Pycnometric method

C=C(C)C(=O)OCc1ccccc1 [benzyl methacrylate] + CCCCO
Details	mass density, 288.15 K [kg/m3]	mass density, 298.15 K [kg/m3]	mass density, 308.15 K [kg/m3]	mass density, 318.15 K [kg/m3]	viscosity, 288.15 K [mPa·s]	viscosity, 298.15 K [mPa·s]	viscosity, 308.15 K [mPa·s]	viscosity, 318.15 K [mPa·s]
x2 = 0	1041.2	1034.7	1025.8	1017	2.871	2.302	1.885	1.58
x2 = 0.1	1027.8	1021.3	1012.5	1003.9	2.655	2.123	1.746	1.455
x2 = 0.2	1013.3	1006.8	998.1	989.5	2.519	2.021	1.656	1.388
x2 = 0.3	997.5	990.9	982.3	973.8	2.462	1.958	1.605	1.342
x2 = 0.4	979.9	973.3	964.8	956.4	2.41	1.919	1.568	1.308
x2 = 0.5	960.3	953.7	945.3	937	2.384	1.868	1.525	1.272
x2 = 0.6	938.3	931.6	923.4	915.2	2.375	1.834	1.505	1.247
x2 = 0.7	913.2	906.6	898.5	890.4	2.427	1.863	1.508	1.244
x2 = 0.8	884.5	877.9	869.9	862	2.51	1.982	1.59	1.302
x2 = 0.9	851.3	844.6	836.8	829.1	2.704	2.168	1.727	1.394

C=C(C)C(=O)O [2-methyl-2-propenoic acid] + CCCCO
Details	mass density, 288.15 K [kg/m3]	mass density, 298.15 K [kg/m3]	mass density, 308.15 K [kg/m3]	mass density, 318.15 K [kg/m3]	viscosity, 288.15 K [mPa·s]	viscosity, 298.15 K [mPa·s]	viscosity, 308.15 K [mPa·s]	viscosity, 318.15 K [mPa·s]
x2 = 0	1018.3	1009.5	999.4	989.2	1.447	1.267	1.078	0.945
x2 = 0.1	996.3	987.7	978	968.1	1.632	1.4	1.174	1.015
x2 = 0.2	974.7	966.5	957.4	948.1	1.818	1.534	1.275	1.09
x2 = 0.3	954.3	946.3	937.7	928.7	2.009	1.672	1.377	1.16
x2 = 0.4	934.2	926.6	918.1	909.3	2.2	1.81	1.476	1.227
x2 = 0.5	914.2	907	898.6	890.1	2.392	1.947	1.574	1.294
x2 = 0.6	894.2	887.4	879	870.6	2.576	2.079	1.667	1.355
x2 = 0.7	874.1	867.3	859.1	851	2.756	2.204	1.756	1.413
x2 = 0.8	853.7	847	839.2	831.4	2.935	2.329	1.842	1.466
x2 = 0.9	832.9	826.7	819.1	811.5	3.111	2.453	1.925	1.515

C=C(C)C(=O)OCCO [2-hydroxyethyl 2-methyl-2-propenoate] + CCCCO
Details	mass density, 288.15 K [kg/m3]	mass density, 298.15 K [kg/m3]	mass density, 308.15 K [kg/m3]	mass density, 318.15 K [kg/m3]	viscosity, 288.15 K [mPa·s]	viscosity, 298.15 K [mPa·s]	viscosity, 308.15 K [mPa·s]	viscosity, 318.15 K [mPa·s]
x2 = 0	1074.7	1067.1	1057.7	1048.6	8.234	5.784	4.194	3.181
x2 = 0.1	1054.5	1047.1	1037.9	1029.1	7.303	5.188	3.822	2.963
x2 = 0.2	1033.3	1025.9	1016.9	1008.3	6.437	4.643	3.432	2.692
x2 = 0.3	1010.9	1003.6	994.8	986.3	5.681	4.154	3.109	2.43
x2 = 0.4	987.3	980	971.3	963	5.118	3.738	2.829	2.222
x2 = 0.5	962.2	955.1	946.6	938.3	4.633	3.398	2.598	2.051
x2 = 0.6	935.7	928.6	920.3	912.1	4.195	3.092	2.399	1.9
x2 = 0.7	907.6	900.6	892.4	884.4	3.833	2.834	2.212	1.759
x2 = 0.8	877.7	870.8	862.9	855	3.534	2.666	2.089	1.657
x2 = 0.9	846	839.2	831.5	823.8	3.321	2.583	2.018	1.609
